This experiment concerns the target T1, Human GLP-1 receptor stably expressing cells (hGLP-1R/CHO-K1 cells) (Homo sapiens, UniProt P43220).
T1 construct: expressed in transfected cells
Kind of experiment: Measurement of GLP-1 receptor agonist activity (cAMP assay). It is filed as cell-based. Particulars: for Emax: cAMP with 2 nM human GLP-1 (7-36) = 100%, DMSO only = 0%; for pEC50: increase in cAMP concentration in hGLP-1R/CHO-K1 cells, 37° C. 1 hour. Here is the method: Test Example 1: Measurement of GLP-1 Receptor Agonist Activity
Human GLP-1 receptor stably expressing cells (hGLP-1R/CHO-K1 cells) are cultured in an a-MEM medium (Sigma) containing 10% FBS (Hyclone), 2% GlutaMAX (Gibco), 1% G418 (Nacalai Tesque), and 1% Penicillin-Streptomycin Mixed Solution (Sigma) at 37° C. under 5% CO2 conditions, and recovered by treating a 10 fold diluted 5.0 g/1-trypsin/5.3 mmol/1-EDTA solution (Nacalai Tesque) and cryopreserved.
A DMSO solution containing the compound of the present invention or human GLP-1 (7-36) (Phoenix Pharmaceuticals) is dispensed into a 384-well microplate (Greiner) at 62.5 nL/well, and in addition, 400 μM Forskolin (Nacalai Tesque) is dispensed therein at 7.5 nL/well. Subsequently, the frozen GLP-1 R/CHO-K1 cells are thawed in a thermostatic bath at 37° C., suspended in HBSS buffer (GIBCO) containing 0.1% BSA (Sigma), 20 mM HEPES, 0.1 mM IBMX (Sigma), and 0.2 mM RO20-1724 (Calbiochem) at 2×10^4 cells/mL, and the cell suspension is added at 6 μL/well. The solution was incubated at 37° C. for 1 hour and intracellular cAMP concentration is measured using cAMP Gs dynamic kit (Cisbio) according to the protocol attached to the product. Specifically, a cAMP-d2/Anti-cAMP-Cryptate (1/1) mixture solution is added in a total amount of 6 μL/well, and is incubated at room temperature for 1 hour, and then, time-resolved fluorescence is measured using PHERAstar (BMG Labtech).
Assuming that the cAMP concentration when human GLP-1 (7-36) is dispensed to a final concentration of 2 nM is 100% and the cAMP concentration when only DMSO is dispensed is 0%, the 50% effective concentration (EC50) and the maximum effect (Emax) of the compound of the present invention are calculated using an increase in the cAMP concentration as an index, using TIBCO Spotfire (TIBCO Software). The dilution concentration or the dilution solvent are changed as necessary.
The compounds of the present invention were tested essentially as described above.

Setting [1] is: CHO-K1, maximum effect, read-out: Emax.

pEC50: −log10 of the molar value. Like-named read-outs stand apart in the source and are kept apart here.

T1 sequence (P43220 24-463): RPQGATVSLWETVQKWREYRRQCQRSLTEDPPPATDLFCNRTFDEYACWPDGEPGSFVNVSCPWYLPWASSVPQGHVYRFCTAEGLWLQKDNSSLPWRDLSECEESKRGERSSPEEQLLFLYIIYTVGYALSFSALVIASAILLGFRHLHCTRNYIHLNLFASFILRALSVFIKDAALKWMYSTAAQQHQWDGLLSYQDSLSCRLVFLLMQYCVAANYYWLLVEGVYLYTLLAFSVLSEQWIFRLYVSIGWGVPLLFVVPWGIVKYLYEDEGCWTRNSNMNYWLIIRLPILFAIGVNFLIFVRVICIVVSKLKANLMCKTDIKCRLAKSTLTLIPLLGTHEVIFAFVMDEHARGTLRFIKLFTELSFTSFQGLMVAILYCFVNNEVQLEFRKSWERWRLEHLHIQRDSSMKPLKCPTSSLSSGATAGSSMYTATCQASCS

In turn, `C[C@H]1c2c(cc(C(F)(F)F)c3c2OC(C)(c2ccc(Cl)cc2F)O3)CCN1Cc1nc2ccc(C(=O)O)cc2n1C[C@@H]1CCO1` (mixture of isomers) [Compound I-015] had a pEC50 of 8.63. Also, the Emax under setting [1] was 93.3%.
For `O=C(O)c1ccc2nc(Cc3ccc4nc(C(F)(F)F)c(OCc5ccc(Cl)cc5F)nc4c3F)n(C[C@@H]3CCO3)c2c1F` [Compound I-001], in that order: 9.27 and 100%.
`Cc1cc2c(nc1OCc1ccc(Cl)cc1F)[C@H](C)N(Cc1nc3ccc(C(=O)O)cc3n1C[C@@H]1CCO1)CC2` [Compound I-002] had a pEC50 of 9.77. Under setting [1], the Emax came to 109%.
Consider `C[C@H]1c2cc(OCc3ccc(Cl)cn3)c(C(F)F)cc2CCN1Cc1nc2ccc(C(=O)O)cc2n1C[C@@H]1CCO1` [Compound I-003], for which the pEC50 is 8.44. In addition, under setting [1], the Emax is 102%.
For `C[C@H]1c2cc(OCc3ccc(Cl)cc3)c(C(F)F)cc2CCN1Cc1nc2ccc(C(=O)O)cc2n1C[C@@H]1CCO1` [Compound I-004], in that order: 8.54 and 105%.
The matching figures for `Cc1ccc(COc2cc3c(cc2C(F)F)CCN(Cc2nc4ccc(C(=O)O)cc4n2C[C@@H]2CCO2)[C@H]3C)cc1` [Compound I-005]: 8.47 and 111%.
On to `COc1cc(Cl)ccc1COc1cc2c(cc1C(F)F)CCN(Cc1nc3ccc(C(=O)O)cc3n1C[C@@H]1CCO1)[C@H]2C` [Compound I-006], for which the pEC50 is 9.51. Further, the Emax under setting [1] is 130%.
In the case of `C[C@H]1c2cc(OCc3ccccc3Cl)c(C(F)F)cc2CCN1Cc1nc2ccc(C(=O)O)cc2n1C[C@@H]1CCO1` [Compound I-007], the pEC50 was 8.10. Besides, the Emax under setting [1] was 88%.
`C[C@H]1c2cc(OCc3ccc(F)cc3F)c(C(F)F)cc2CCN1Cc1nc2ccc(C(=O)O)cc2n1C[C@@H]1CCO1` [Compound I-008] showed a pEC50 of 8.41. In addition, under setting [1], the Emax came to 107%.
For `C[C@H]1c2cc(OCc3ccc(Cl)cc3Cl)c(C(F)F)cc2CCN1Cc1nc2ccc(C(=O)O)cc2n1C[C@@H]1CCO1` [Compound I-009], in that order: 9.01 and 122%.
The matching figures for `C[C@H]1c2cc(OCc3cc(F)c(Cl)cc3F)c(C(F)F)cc2CCN1Cc1nc2ccc(C(=O)O)cc2n1C[C@@H]1CCO1` [Compound I-010]: 8.70 and 117%.
The matching figures for `C[C@H]1c2cc(OCc3ccc(F)cc3)c(C(F)F)cc2CCN1Cc1nc2ccc(C(=O)O)cc2n1C[C@@H]1CCO1` [Compound I-011]: 7.79 and 102%.
`C[C@H]1c2cc(OCc3c(F)cc(Cl)cc3F)c(C(F)F)cc2CCN1Cc1nc2ccc(C(=O)O)cc2n1C[C@@H]1CCO1` [Compound I-012]: the pEC50 is 8.90. For the same compound, the Emax under setting [1] turned out to be 108%.
The matching figures for `C[C@H]1c2cc(OCc3c(F)cc(F)cc3F)c(C(F)F)cc2CCN1Cc1nc2ccc(C(=O)O)cc2n1C[C@@H]1CCO1` [Compound I-013]: 8.38 and 114%.
The matching figures for `C[C@H]1c2nc(OCc3ccc(Cl)c4ccoc34)c(C(F)(F)F)cc2CCN1Cc1nc2ccc(C(=O)O)cc2n1C[C@@H]1CCO1` [Compound I-014]: 9.77 and 128%.
The matching figures for `C[C@H]1c2nc(OCc3ccc(Cl)cc3)c(Cl)cc2CCN1Cc1nc2ccc(C(=O)O)cc2n1C[C@@H]1CCO1` [Compound I-017]: 9.77 and 136%.
The compound `Cc1ccc(COc2nc3c(cc2Cl)CCN(Cc2nc4ccc(C(=O)O)cc4n2C[C@@H]2CCO2)[C@H]3C)cc1` [Compound I-018] gave a pEC50 of 9.46. Further, the Emax (maximum effect) is recorded as 133%.
The compound `C[C@H]1c2nc(OCc3ccc(F)cc3F)c(Cl)cc2CCN1Cc1nc2ccc(C(=O)O)cc2n1C[C@@H]1CCO1` [Compound I-019] gave a pEC50 of 9.75. The Emax under setting [1] came out at 124%.
The matching figures for `C[C@H]1c2nc(OCc3ccc(Cl)cc3Cl)c(Cl)cc2CCN1Cc1nc2ccc(C(=O)O)cc2n1C[C@@H]1CCO1` [Compound I-020]: 10.01 and 135%.
In turn, `C[C@H]1c2nc(OCc3cc(F)c(Cl)cc3F)c(Cl)cc2CCN1Cc1nc2ccc(C(=O)O)cc2n1C[C@@H]1CCO1` [Compound I-021] gave a pEC50 of 10.08. The Emax under setting [1] is 112%.
For `C[C@H]1c2nc(OCc3ccc(C#N)cc3F)c(Cl)cc2CCN1Cc1nc2ccc(C(=O)O)cc2n1C[C@@H]1CCO1` [Compound I-022], in that order: 9.90 and 112%.
For `C[C@H]1c2nc(OCc3ccc(F)cc3)c(Cl)cc2CCN1Cc1nc2ccc(C(=O)O)cc2n1C[C@@H]1CCO1` [Compound I-023], in that order: 9.35 and 130%.
For `C[C@H]1c2nc(OCc3c(F)cc(Cl)cc3F)c(Cl)cc2CCN1Cc1nc2ccc(C(=O)O)cc2n1C[C@@H]1CCO1` [Compound I-024], in that order: 9.93 and 124%.
In the case of `C[C@H]1c2nc(OCc3c(F)cc(F)cc3F)c(Cl)cc2CCN1Cc1nc2ccc(C(=O)O)cc2n1C[C@@H]1CCO1` [Compound I-025], the pEC50 is 9.51. Also, under setting [1], the Emax amounted to 113%.
For `C[C@H]1c2c(cc(C(F)(F)F)c3c2O[C@](C)(c2ccc(Cl)cn2)O3)CCN1Cc1nc2ccc(C(=O)O)cc2n1C[C@@H]1CCO1` [Compound I-026], in that order: 5.38 and 53.3%.
In turn, `C[C@H]1c2c(cc(C(F)(F)F)c3c2O[C@@](C)(c2ccc(Cl)cn2)O3)CCN1Cc1nc2ccc(C(=O)O)cc2n1C[C@@H]1CCO1` [Compound I-027] had a pEC50 of 9.15. Besides, under setting [1], the Emax came to 119%.
The compound `Cc1ccc(COc2nc3c(cc2Cl)CCN(Cc2nc4ccc(C(=O)O)cc4n2C[C@@H]2CCO2)[C@H]3C)cc1` [Compound I-028] gave a pEC50 of 9.13. The Emax (maximum effect) worked out at 110%.
The compound `C[C@H]1c2nc(OCc3ccc(F)cc3F)c(Cl)cc2CCN1Cc1nc2ccc(C(=O)O)nc2n1C[C@@H]1CCO1` [Compound I-029] had a pEC50 of 9.23. Under setting [1], the Emax came out at 105%.
The matching figures for `C[C@H]1c2nc(OCc3ccc(Cl)cc3Cl)c(Cl)cc2CCN1Cc1nc2ccc(C(=O)O)nc2n1C[C@@H]1CCO1` [Compound I-030]: 9.43 and 123%.
In the case of `C[C@H]1c2nc(OCc3cc(F)c(Cl)cc3F)c(Cl)cc2CCN1Cc1nc2ccc(C(=O)O)nc2n1C[C@@H]1CCO1` [Compound I-031], the pEC50 was 9.50. Besides, the Emax under setting [1] worked out at 118%.
The matching figures for `C[C@H]1c2nc(OCc3ccc(C#N)cc3F)c(Cl)cc2CCN1Cc1nc2ccc(C(=O)O)nc2n1C[C@@H]1CCO1` [Compound I-032]: 9.43 and 126%.
`C[C@H]1c2nc(OCc3c(F)cc(Cl)cc3F)c(Cl)cc2CCN1Cc1nc2ccc(C(=O)O)nc2n1C[C@@H]1CCO1` [Compound I-033] showed a pEC50 of 9.36. Also, the Emax under setting [1] worked out at 111%.
For `C[C@H]1c2nc(OCc3ccc(Cl)cc3F)c(Cl)cc2CCN1Cc1nc2ccc(C(=O)O)nc2n1C[C@@H]1CCO1` [Compound I-034], in that order: 9.60 and 103%.
`Cc1ccc(COc2nc3c(cc2Cl)CCN(Cc2nc4ccc(C(=O)O)c(F)c4n2C[C@@H]2CCO2)[C@H]3C)cc1` [Compound I-035]: the pEC50 is 9.80. For the same compound, under setting [1], the Emax was determined as 124%.
Regarding `C[C@H]1c2nc(OCc3ccccc3Cl)c(Cl)cc2CCN1Cc1nc2ccc(C(=O)O)c(F)c2n1C[C@@H]1CCO1` [Compound I-036], the pEC50 is 9.36. In addition, under setting [1], the Emax was determined as 113%.
The matching figures for `C[C@H]1c2nc(OCc3ccc(F)cc3F)c(Cl)cc2CCN1Cc1nc2ccc(C(=O)O)c(F)c2n1C[C@@H]1CCO1` [Compound I-037]: 9.98 and 122%.
As to `C[C@H]1c2nc(OCc3ccc(Cl)cc3Cl)c(Cl)cc2CCN1Cc1nc2ccc(C(=O)O)c(F)c2n1C[C@@H]1CCO1` [Compound I-038], the pEC50 was 10.23. Moreover, the Emax under setting [1] is 126%.
For `C[C@H]1c2nc(OCc3cc(F)c(Cl)cc3F)c(Cl)cc2CCN1Cc1nc2ccc(C(=O)O)c(F)c2n1C[C@@H]1CCO1` [Compound I-040], in that order: 10.17 and 129%.
Regarding `C[C@H]1c2nc(OCc3ccc(C#N)cc3F)c(Cl)cc2CCN1Cc1nc2ccc(C(=O)O)c(F)c2n1C[C@@H]1CCO1` [Compound I-041], the pEC50 is 10.20. The Emax under setting [1] was found to be 145%.

These data come from patent US20260097037A1, “FUSED RING COMPOUND HAVING GLP-1 RECEPTOR AGONIST EFFECT” (Shionogi & Co., Ltd., priority 2022, published 2026).
